Assay results taken from patent publication US20220119777A1, “CHEMILUMINESCENCE PHOTODYNAMIC VIRUS INACTIVATION OF RED BLOOD CELLS” (priority 2020, published 2022).

Tested on: bovine viral diarrhea virus (BVDV)
Test: Hypericin-Luciferase inactivation of BVDV spiked into human red blood cell concentrate, TCID50 titration (CPE)
Assay type: cell-based
Conditions: for Unwashed Titer / Unwashed VRF / Washed Titer / Combined VRF / Washed VRF: no luciferase system; for Unwashed Titer: RT 2 h dark; for Unwashed VRF / Washed VRF: vs RBC control; for Combined VRF: washed sample vs unwashed RBC control
Experimental: Ten different combinations of Dulbecco's modified eagle medium without calcium and magnesium (DMEM (—Ca++, —Mg++)), RBCC, virus, hypericin, luciferin, ATP and luciferase were prepared to all contain equivalent titers of BVDV calculated to be 6.48 log 10TCID50/mL based on the titer of the original virus stock. The concentrations of hypericin tested were 0, 40 and 200 μg/mL. Luciferase was tested at 0, 0.8 and 4.0 μM. Luciferin and ATP were present at 80 and 800 μM respectively when luciferase was present and absent in the absence of luciferase.
The components were mixed and incubated at room temperature (RT) for 2 hours in the dark followed by titration of unwashed and washed samples as previously described. Washing rows of wells with dilutions 1 and 2 was performed 3 days post-infection. Final cytopathic effects (CPEs) were read 10 days post-infection.
(§1) Eleven different combinations of DMEM (—Ca++, —Mg++), RBCC, virus, hypericin, luciferin, adenosine triphosphate (ATP) and luciferase were prepared to all contain equivalent titers of BVDV calculated to be 6.48 log 10TCID50/mL (logs) based on the titer of the original virus stock. The concentrations of hypericin tested were 10, 20 and 40 μg/mL. Luciferase was tested at 0.16, 0.32 and 0.8 μM. Luciferin and ATP were present at 80 and 800 μM, respectively.
The components were mixed and incubated at RT for 2 hours in the dark followed by titration of unwashed and washed samples as previously described. Washing of rows of wells with dilutions 1 and 2 was performed […] post-infection. Final CPE were read 10 days post-infection.
as §1, with “Ten” for “Eleven”, “log10 TCID50/mL” for “log 10TCID50/mL”, “40, 80” for “10, 20”, “120” for “40”
The compounds were mixed and incubated at RT for 2 hours in the dark followed by titration of unwashed and washed samples as previously described. Washing rows of wells with dilutions 1 and 2 was performed 2 days post-infection. Final CPEs were read 10 days post-infection.

[1] = Ex 1 HH-LN: hypericin 200 μg/mL
[2] = Ex 1 HH-LN: hypericin 200 μg/mL, washed
[3] = Ex 1 HL-LN: hypericin 40 μg/mL, washed

Cc1cc(O)c2c(=O)c3c(O)cc(O)c4c5c(O)cc(O)c6c(=O)c7c(O)cc(C)c8c1c2c(c34)c(c78)c65 [Hypericin, hypericin]
Unwashed Titer [1]: 3.10 log10TCID50/mL | Unwashed VRF [1]: 3.25 log TCID50 | Washed Titer [2]: 2.48 log10TCID50/mL | Combined VRF [1]: 3.87 log TCID50 | Washed VRF [2]: 1.50 log TCID50 | Unwashed Titer (Ex 1 HL-LN: hypericin 40 μg/mL): 3.48 log10TCID50/mL | Unwashed VRF (Ex 1 HL-LN: hypericin 40 μg/mL): 2.87 log TCID50 | Washed Titer [3]: <2.34 log10TCID50/mL | Combined VRF (Ex 1 HL-LN: hypericin 40 μg/mL): >4.01 log TCID50 | Washed VRF [3]: >1.64 log TCID50 | VRFs, unwashed samples (Example 1, all hypericin treated unwashed samples, low (40 μg/mL) and high (200 μg/mL) doses): ~3 logs | combined VRFs (Example 3, hypericin 40 μg/mL, all levels of luciferase, washed): > 3.51 logs | VRF, washed samples (Example 3, hypericin dose of 40 μg/mL, all levels of luciferase, washed, complete inactivation/elimination): > 1.14 logs | optimal dose of hypericin for BVDV (summary of Examples 1-3, with different doses of luciferase): 40 µg/mL
